Ten molecules from ChEMBL document CHEMBL1201862, “PubChem BioAssay data set” (2004) can be followed below.

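Five concentrations, 48 hours, 96-well plates. The concentration for 50% growth inhibition is given as GI50.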 Calls of active or inactive are those of the source. No stated cut-off is given here; in the data, active = GI50 up to about 1.1 µM and inactive = higher.

Test systems include OVCAR-8; NCI/ADR-RES; PC-3; DU-145; TK-10; M14; ACHN; HOP-62; SK-OV-3; A549; SK-MEL-28; SF-268; SNB-75; MDA-MB-435; UACC-257; MOLT-4; A498; LOX IMVI; NCI-H460; COLO 205.
What all share (assay): growth of human tumour cells (NCI), 48 h

Consider `BrC(Br)=C1C(=C(Br)Br)C(Br)C1Br` (stereo not given), for which the GI50 in the assay with OVCAR-8 is 0.55 µM (active); in the assay on NCI/ADR-RES, 0.733 µM (active); with PC-3 it was 1.62 µM (inactive); in the assay on DU-145, 0.106 µM (active); with TK-10, 0.682 µM (active); in the assay with M14 it was 0.198 µM (active). Besides, the GI50 in the assay with ACHN is 0.152 µM (active); with HOP-62 it was 1.02 µM (active); in the assay on SK-OV-3 it was 3.33 µM (inactive); with A549, 0.796 µM (active); in the assay on SK-MEL-28 it was 1.1 µM (active); in the assay on SF-268 it was 0.274 µM (active). In addition, the GI50 in the assay with SNB-75 is 1.69 µM (inactive); in the assay on MDA-MB-435, 0.927 µM (active); in the assay with UACC-257 it was 1.75 µM (inactive); in the assay on MOLT-4 it was 0.121 µM (active); with A498, 1.06 µM (active); in the assay with LOX IMVI it was 0.0706 µM (active). The GI50 was 0.114 µM (active) in the assay with NCI-H460 and 0.849 µM (active) with COLO 205.
Consider `Cc1ccc(S(=O)(=O)NN=C2C(C)(C)CC2(C)C)cc1`, for which the GI50 with OVCAR-8, in the assay on NCI/ADR-RES, in the assay on PC-3, with DU-145, with TK-10 and in the assay with M14 was > 100 µM (inactive) in each case. In addition, the GI50 with ACHN, in the assay with HOP-62, in the assay with SK-OV-3, in the assay on A549, in the assay on SK-MEL-28 and in the assay with SF-268 was > 100 µM (inactive) in each case. Moreover, the GI50 in the assay on SNB-75 is 17.3 µM (inactive); in the assay on MDA-MB-435, > 100 µM (inactive); in the assay with UACC-257, > 100 µM (inactive); in the assay with MOLT-4, > 100 µM (inactive); with A498 it was > 100 µM (inactive); in the assay with LOX IMVI, > 100 µM (inactive). In addition, the GI50 in the assay with NCI-H460 and in the assay on COLO 205 was > 100 µM (inactive) in each case.
As for `N#CC1CCCC2SC(F)(F)C(F)(F)C12` (stereo not given), the GI50 in the assay on OVCAR-8, in the assay on NCI/ADR-RES, with PC-3, in the assay with DU-145, in the assay on TK-10 and with M14 was > 100 µM (inactive) each time. Also, the GI50 in the assay with ACHN, with HOP-62, in the assay with SK-OV-3, in the assay on A549, with SK-MEL-28 and with SF-268 was > 100 µM (inactive) in each case. In addition, the GI50 is > 88.3 µM (inactive) in the assay on SNB-75; > 100 µM (inactive) in the assay with MDA-MB-435; > 100 µM (inactive) in the assay with UACC-257; 26.6 µM (inactive) with MOLT-4; > 100 µM (inactive) in the assay on A498; 41.6 µM (inactive) in the assay on LOX IMVI. The GI50 in the assay on NCI-H460 and in the assay with COLO 205 was > 100 µM (inactive) throughout.
As to `CC1(C)CC[C@]2(C(=O)O)CC[C@]3(C)[C@H](C(=O)C=C4[C@@]5(C)C=C(C#N)C(=O)C(C)(C)[C@@H]5CC[C@]43C)[C@@H]2C1` [BARDOXOLONE], the GI50 in the assay on OVCAR-8 was 0.577 µM (active); in the assay on NCI/ADR-RES it was 0.993 µM (active); with PC-3 it was 0.311 µM (active); with DU-145 it was 0.508 µM (active); with TK-10, 0.678 µM (active); in the assay on M14, 0.769 µM (active). In addition, the GI50 with ACHN is 0.543 µM (active); with HOP-62, 0.665 µM (active); with SK-OV-3 it was 0.875 µM (active); with A549, 1.16 µM (inactive); with SK-MEL-28 it was 0.16 µM (active); in the assay on SF-268, 0.659 µM (active). The GI50 with SNB-75 was 0.45 µM (active); with MDA-MB-435 it was 0.537 µM (active); in the assay on UACC-257, 1.14 µM (inactive); in the assay with MOLT-4, 0.259 µM (active); with A498 it was 0.391 µM (active); in the assay with LOX IMVI it was 0.0944 µM (active). Further, the GI50 was 0.486 µM (active) with NCI-H460 and 0.215 µM (active) in the assay on COLO 205.
Consider `CC(Oc1ccccc1Cl)C(=O)NN1C(=O)CSC1c1ccccc1` (stereo not given), for which the GI50 in the assay on OVCAR-8, in the assay on NCI/ADR-RES, with PC-3, with DU-145, in the assay with TK-10 and with M14 was > 100 µM (inactive) throughout. Also, the GI50 is > 100 µM (inactive) in the assay on ACHN; > 100 µM (inactive) in the assay with HOP-62; > 100 µM (inactive) in the assay on SK-OV-3; 62.7 µM (inactive) in the assay on A549; > 100 µM (inactive) in the assay on SK-MEL-28; > 100 µM (inactive) in the assay with SF-268. In addition, the GI50 was > 100 µM (inactive) in the assay on SNB-75; 75.3 µM (inactive) in the assay on MDA-MB-435; > 100 µM (inactive) in the assay on UACC-257; 29.8 µM (inactive) with MOLT-4; > 100 µM (inactive) in the assay with A498; > 100 µM (inactive) in the assay with LOX IMVI. Further, the GI50 in the assay on NCI-H460 and in the assay on COLO 205 was > 100 µM (inactive) in each case.
Turning to `CC(C)(C)c1ccc(O)c(CN(Cc2c(O)ccc3ccccc23)C2CCCCC2)c1`, the GI50 in the assay with OVCAR-8 was 15.2 µM (inactive); in the assay with NCI/ADR-RES, 16.3 µM (inactive); in the assay with PC-3, 14.5 µM (inactive); in the assay with DU-145, 23.8 µM (inactive); with TK-10, 15.8 µM (inactive); with M14, 12.6 µM (inactive). For the same molecule, the GI50 in the assay on ACHN is 18.5 µM (inactive); in the assay with HOP-62 it was 17.6 µM (inactive); in the assay with SK-OV-3, 24.9 µM (inactive); in the assay with A549, 18.5 µM (inactive); in the assay on SK-MEL-28, 20.5 µM (inactive); in the assay with SF-268, 16.1 µM (inactive). For the same molecule, the GI50 in the assay with SNB-75 was 16 µM (inactive); with MDA-MB-435, 19.2 µM (inactive); with UACC-257, 15.7 µM (inactive); in the assay on MOLT-4 it was 18.6 µM (inactive); in the assay with A498 it was 19.5 µM (inactive); in the assay on LOX IMVI, 10.4 µM (inactive). Moreover, the GI50 with NCI-H460 was 15.8 µM (inactive); in the assay on COLO 205, 15.7 µM (inactive).
As to `COc1c(Br)cc2ccccc2c1-c1c(OC)c(Br)cc2ccccc12`, the GI50 in the assay with OVCAR-8 is > 100 µM (inactive); in the assay on NCI/ADR-RES, > 100 µM (inactive); with PC-3, 95.9 µM (inactive); in the assay with DU-145, > 100 µM (inactive); in the assay on TK-10, > 100 µM (inactive); in the assay on M14, > 100 µM (inactive). Besides, the GI50 in the assay with ACHN, with HOP-62, with SK-OV-3, in the assay with A549, with SK-MEL-28 and in the assay on SF-268 was > 100 µM (inactive) throughout. The GI50 in the assay with SNB-75 was > 100 µM (inactive); with MDA-MB-435 it was > 100 µM (inactive); in the assay on UACC-257, > 100 µM (inactive); in the assay with MOLT-4 it was 6.32 µM (inactive); in the assay on A498 it was > 100 µM (inactive); in the assay with LOX IMVI, > 100 µM (inactive). For the same molecule, the GI50 in the assay with NCI-H460 and in the assay with COLO 205 was > 100 µM (inactive) throughout.
In the case of `N#Cc1nc(C#N)n(S(=O)(=O)c2ccccc2)c1NS(=O)(=O)c1ccccc1`, the GI50 in the assay with OVCAR-8, in the assay with NCI/ADR-RES, with PC-3, in the assay with DU-145, with TK-10 and with M14 was > 100 µM (inactive) in each case. The GI50 with ACHN, in the assay with HOP-62, in the assay with SK-OV-3, in the assay on A549, in the assay on SK-MEL-28 and in the assay on SF-268 was > 100 µM (inactive) in each case. Besides, the GI50 with SNB-75 is > 65.3 µM (inactive); in the assay on MDA-MB-435, > 100 µM (inactive); in the assay with UACC-257 it was > 100 µM (inactive); with MOLT-4, > 100 µM (inactive); in the assay with A498 it was > 100 µM (inactive); with LOX IMVI, > 100 µM (inactive). Moreover, the GI50 in the assay on NCI-H460 and with COLO 205 was > 100 µM (inactive) throughout.
`Cc1cccc(/C=N/NC(=S)NC2CCCCC2)n1`: the GI50 in the assay on OVCAR-8 was 19.4 µM (inactive); in the assay on NCI/ADR-RES, 11.9 µM (inactive); in the assay with PC-3, 6.73 µM (inactive); in the assay on DU-145, 29.6 µM (inactive); in the assay with TK-10, 58.5 µM (inactive); with M14, 23 µM (inactive). For the same molecule, the GI50 in the assay on ACHN was 25.8 µM (inactive); in the assay with HOP-62 it was 20.9 µM (inactive); in the assay with SK-OV-3, 23.1 µM (inactive); in the assay on A549, 28.9 µM (inactive); in the assay with SK-MEL-28, 46.7 µM (inactive); in the assay on SF-268, 32 µM (inactive). For the same molecule, the GI50 in the assay with SNB-75 is 45.3 µM (inactive); with MDA-MB-435, 33.7 µM (inactive); with UACC-257 it was 17.3 µM (inactive); in the assay on MOLT-4, 2.26 µM (inactive); with A498, 28.1 µM (inactive); in the assay with LOX IMVI, 14 µM (inactive). The GI50 in the assay on NCI-H460 was 13.5 µM (inactive); in the assay on COLO 205 it was 8.85 µM (inactive).
On to `C=C1[C@H](OC(=O)C(C)C)[C@]23CC4(O)[C@@H]5[C@@]6(C)CCC[C@]57C([C@@H]2C[C@@]1(O)[C@H](O)[C@@H]73)N4C6`, for which the GI50 in the assay on OVCAR-8, with NCI/ADR-RES, in the assay with PC-3, in the assay with DU-145, in the assay with TK-10 and in the assay with M14 was > 100 µM (inactive) each time. Moreover, the GI50 with ACHN is 72.8 µM (inactive); in the assay with HOP-62, > 100 µM (inactive); in the assay on SK-OV-3, 98.6 µM (inactive); in the assay with A549 it was > 100 µM (inactive); in the assay on SK-MEL-28 it was > 100 µM (inactive); in the assay on SF-268, > 100 µM (inactive). Further, the GI50 in the assay with SNB-75, in the assay on MDA-MB-435, with UACC-257, in the assay on MOLT-4, in the assay with A498 and with LOX IMVI was > 100 µM (inactive) each time. The GI50 with NCI-H460 and in the assay on COLO 205 was > 100 µM (inactive) each time.
